Test results published in patent publication US9993494B2, “Compositions and methods for treating fibrotic disease” (eFFECTOR Therapeutics, Inc., priority 2014, dated 2018).

Tested on: normal human lung fibroblasts
Assay: Ribosomal profiling: translational efficiency in TGFβ-treated fibroblasts
Assay type: cell-based
Settings: TGFβ-treated fibroblasts
Protocol: Ribosomal profiling allows for measurement of changes in transcription and translation on a genome-wide basis accompanying TGFβ-dependent transformation of fibroblasts to myofibroblasts. Ribosomal profiles of the TGFβ-treated fibroblasts from Example 1 (about 6×10^6 cells/10 cm plate) were prepared and analyzed for changes in translational efficiencies with respect to potential disease-associated cellular changes accompanying this TGFβ-induced transformation.
Briefly, cells were washed with cold PBS supplemented with cycloheximide and lysed with 1× mammalian cell lysis buffer for 10 minutes on ice. Lysates were clarified by centrifugation for 10 minutes at 14,000 rpm and supernatants were collected. Cell lysates were processed to generate ribosomal protected fragments and total mRNA according to the instructions included with the ARTseq Ribosome Profiling Kit (Illumina, San Diego, Calif.). Sequencing of total RNA (RNA) and of ribosome-protected fragments of RNA (RPF) was carried out using RNA-Seq methodology according to the manufacturer's instructions (Illumina). To analyze the ribosomal profiles, RNA-Seq reads were processed with tools from the FASTX-Toolkit (fastq_quality_trimmer, fastx_clipper and fastx_trimmer). Unprocessed and processed reads were evaluated for a variety of quality measures using FastQC, and processed reads were mapped to the human genome using TopHat (see, e.g., Trapnell et al., Bioinformatics 25:1105, 2009). Gene-by-gene assessment of the number of fragments strictly and uniquely mapping to the coding region of each gene was conducted using HTSeq-count, a component of the HTSeq package. […] Genes with low counts in either RPF or RNA were excluded from differential analyses. Pathway and network analyses of differential data were conducted using Ingenuity Pathway Analysis (IPA).

Cc1cc(C2CCCCC2)n(O)c(=O)c1.NCCO [CPX, ciclopirox oloamine]
++ (++ = 1.5 to 2.0): renormalizing the translational profile of P2RX7 (ENSG00000089041) | renormalizing the translational profile of KRT7 (ENSG00000135480)
− (− = <0.9): renormalizing the translational profile of DNASE1L1 (ENSG00000013563) | renormalizing the translational profile of KITLG (ENSG00000049130) | renormalizing the translational profile of ADAMTS6 (ENSG00000049192) | renormalizing the translational profile of LETMD1 (ENSG00000050426) | renormalizing the translational profile of PLEKHA5 (ENSG00000052126) | renormalizing the translational profile of EIF4B (ENSG00000063046) | renormalizing the translational profile of RPL18 (ENSG00000063177) | renormalizing the translational profile of HIPK2 (ENSG00000064393) | renormalizing the translational profile of ASPM (ENSG00000066279) | renormalizing the translational profile of RASSF1 (ENSG00000068028) | renormalizing the translational profile of PABPC1 (ENSG00000070756) | renormalizing the translational profile of RPL31 (ENSG00000071082) | renormalizing the translational profile of PLD1 (ENSG00000075651) | renormalizing the translational profile of EDN1 (ENSG00000078401) | renormalizing the translational profile of AURKA (ENSG00000087586) | renormalizing the translational profile of EPB41L1 (ENSG00000088367) | renormalizing the translational profile of RPL6 (ENSG00000089009) | renormalizing the translational profile of KDM2B (ENSG00000089094) | renormalizing the translational profile of RPLP0 (ENSG00000089157) | renormalizing the translational profile of IGBP1 (ENSG00000089289) | renormalizing the translational profile of IRAK3 (ENSG00000090376) | renormalizing the translational profile of PABPC4 (ENSG00000090621) | renormalizing the translational profile of FMO2 (ENSG00000094963) | renormalizing the translational profile of ACOT7 (ENSG00000097021) | renormalizing the translational profile of ATP5D (ENSG00000099624) | renormalizing the translational profile of LGALS1 (ENSG00000100097) | renormalizing the translational profile of EIF3L (ENSG00000100129) | renormalizing the translational profile of RPL3 (ENSG00000100316) | renormalizing the translational profile of CEP192 (ENSG00000101639) | renormalizing the translational profile of AMMECR1 (ENSG00000101935) | renormalizing the translational profile of PLP2 (ENSG00000102007) | renormalizing the translational profile of EIF3E (ENSG00000104408) | renormalizing the translational profile of EEF1D (ENSG00000104529) | renormalizing the translational profile of C19orf53 (ENSG00000104979) | renormalizing the translational profile of RAB3D (ENSG00000105514) | renormalizing the translational profile of RPL18A (ENSG00000105640) | renormalizing the translational profile of COMP (ENSG00000105664) | renormalizing the translational profile of GLCCI1 (ENSG00000106415) | renormalizing the translational profile of CORO2A (ENSG00000106789) | renormalizing the translational profile of RPL28 (ENSG00000108107) | renormalizing the translational profile of RPL19 (ENSG00000108298) | renormalizing the translational profile of RASD1 (ENSG00000108551) | renormalizing the translational profile of NAT9 (ENSG00000109065) | renormalizing the translational profile of RPL34 (ENSG00000109475) | renormalizing the translational profile of CRYAB (ENSG00000109846) | renormalizing the translational profile of GAPDH (ENSG00000111640) | renormalizing the translational profile of C12orf57 (ENSG00000111678) | renormalizing the translational profile of HBEGF (ENSG00000113070) | renormalizing the translational profile of RPL24 (ENSG00000114391) | renormalizing the translational profile of EEF1B2 (ENSG00000114942) | renormalizing the translational profile of IFIH1 (ENSG00000115267) | renormalizing the translational profile of DPH5 (ENSG00000117543) | renormalizing the translational profile of PPL (ENSG00000118898) | renormalizing the translational profile of LIAS (ENSG00000121897) | renormalizing the translational profile of GPSM2 (ENSG00000121957) | renormalizing the translational profile of RPL21 (ENSG00000122026) | renormalizing the translational profile of RPL5 (ENSG00000122406) | renormalizing the translational profile of INHBA (ENSG00000122641) | renormalizing the translational profile of CIT (ENSG00000122966) | renormalizing the translational profile of RPL23 (ENSG00000125691) | renormalizing the translational profile of NECAB3 (ENSG00000125967) | renormalizing the translational profile of COX7C (ENSG00000127184) | renormalizing the translational profile of LIF (ENSG00000128342) | renormalizing the translational profile of MTUS1 (ENSG00000129422) | renormalizing the translational profile of ARHGEF6 (ENSG00000129675) | renormalizing the translational profile of RPL36 (ENSG00000130255) | renormalizing the translational profile of GDF15 (ENSG00000130513) | renormalizing the translational profile of ASS1 (ENSG00000130707) | renormalizing the translational profile of EIF2S3 (ENSG00000130741) | renormalizing the translational profile of RPL27 (ENSG00000131469) | renormalizing the translational profile of MATN3 (ENSG00000132031) | renormalizing the translational profile of PPARG (ENSG00000132170) | renormalizing the translational profile of KDM6B (ENSG00000132510) | renormalizing the translational profile of RARRES3 (ENSG00000133321) | renormalizing the translational profile of ATP5G2 (ENSG00000135390) | renormalizing the translational profile of HNRNPA1 (ENSG00000135486) | renormalizing the translational profile of IL6 (ENSG00000136244) | renormalizing the translational profile of RPL35 (ENSG00000136942) | renormalizing the translational profile of NOV (ENSG00000136999) | renormalizing the translational profile of IER3 (ENSG00000137331) | renormalizing the translational profile of DDX60 (ENSG00000137628) | renormalizing the translational profile of RPLP1 (ENSG00000137818) | renormalizing the translational profile of AOX1 (ENSG00000138356) | renormalizing the translational profile of FGF5 (ENSG00000138675) | renormalizing the translational profile of PDE5A (ENSG00000138735) | renormalizing the translational profile of GAS2L3 (ENSG00000139354) | renormalizing the translational profile of DIAPH3 (ENSG00000139734) | renormalizing the translational profile of MYO19 (ENSG00000141140) | renormalizing the translational profile of RPL13A (ENSG00000142541) | renormalizing the translational profile of RPL11 (ENSG00000142676) | renormalizing the translational profile of RPL32 (ENSG00000144713) | renormalizing the translational profile of RPL37 (ENSG00000145592) | renormalizing the translational profile of BTF3 (ENSG00000145741) | renormalizing the translational profile of HIGD2A (ENSG00000146066) | renormalizing the translational profile of CREB5 (ENSG00000146592) | renormalizing the translational profile of DENND2A (ENSG00000146966) | renormalizing the translational profile of RPL10 (ENSG00000147403) | renormalizing the translational profile of EIF3H (ENSG00000147677) | renormalizing the translational profile of RPL7A (ENSG00000148303) | renormalizing the translational profile of EIF3M (ENSG00000149100) | renormalizing the translational profile of FAU (ENSG00000149806) | renormalizing the translational profile of CCDC102B (ENSG00000150636) | renormalizing the translational profile of HOMER1 (ENSG00000152413) | renormalizing the translational profile of PLEKHH2 (ENSG00000152527) | renormalizing the translational profile of ANKH (ENSG00000154122) | renormalizing the translational profile of ABCA6 (ENSG00000154262) | renormalizing the translational profile of OXA1L (ENSG00000155463) | renormalizing the translational profile of C9orf85 (ENSG00000155621) | renormalizing the translational profile of RPL30 (ENSG00000156482) | renormalizing the translational profile of EEF1A1 (ENSG00000156508) | renormalizing the translational profile of NRG1 (ENSG00000157168) | renormalizing the translational profile of ADAMTS4 (ENSG00000158859) | renormalizing the translational profile of RPL8 (ENSG00000161016) | renormalizing the translational profile of RPL26 (ENSG00000161970) | renormalizing the translational profile of RPL29 (ENSG00000162244) | renormalizing the translational profile of CAMK2N1 (ENSG00000162545) | renormalizing the translational profile of IGFBP7 (ENSG00000163453) | renormalizing the translational profile of RPL22L1 (ENSG00000163584)
+ (+ = 0.9 to 1.5): renormalizing the translational profile of GLTSCR2 (ENSG00000105373) | renormalizing the translational profile of GDF10 (ENSG00000107623) | renormalizing the translational profile of PLEKHG1 (ENSG00000120278) | renormalizing the translational profile of LAMP5 (ENSG00000125869) | renormalizing the translational profile of BIVM (ENSG00000134897) | renormalizing the translational profile of PAQR5 (ENSG00000137819) | renormalizing the translational profile of ACTA1 (ENSG00000143632) | renormalizing the translational profile of PLEKHA6 (ENSG00000143850) | renormalizing the translational profile of FRMD4A (ENSG00000151474) | renormalizing the translational profile of OBSCN (ENSG00000154358) | renormalizing the translational profile of ADAMTS5 (ENSG00000154736)
